Results: patent US20240409585A1, “MACROCYCLIC IMMUNOMODULATORS” (priority 2021, published 2024)
Bridge positions count the residues as written; N and C are the ends. Square brackets hold non-standard residues; d marks the D form. Peptide text beside a SMILES is read from it. * marks the point of attachment. Bip = N[C@@H](Cc1ccc(-c2ccccc2)cc1)C(=O)O; Cha = N[C@@H](CC1CCCCC1)C(=O)O; Cit = NC(=O)NCCC[C@H](N)C(=O)O; Carboxymethyl = O=C(O)C*; NMeA = CN[C@@H](C)C(=O)O; Nle = CCCC[C@H](N)C(=O)O; Dab = NCC[C@H](N)C(=O)O; Dap = NC[C@H](N)C(=O)O

target: T1, PE-labeled human PD-L1-Ig binding to Jurkat cell line over-expressing human PD-1 (Jurkat-PD-1) (Homo sapiens, UniProt Q15116); test: Jurkat-PD-1 Cell Binding High-Content Screening Assay (CBA): Method 1; conditions: Jurkat-hPD-1 cells, PE-labeled PD-L1-Ig 20 nM final; read-out: Jurkat HPDL1 PD1 IC50 (uM) (Method 1)
T1 construct: expressed in transfected cells; host or cells: Jurkat
T1 sequence (Q15116 25-288): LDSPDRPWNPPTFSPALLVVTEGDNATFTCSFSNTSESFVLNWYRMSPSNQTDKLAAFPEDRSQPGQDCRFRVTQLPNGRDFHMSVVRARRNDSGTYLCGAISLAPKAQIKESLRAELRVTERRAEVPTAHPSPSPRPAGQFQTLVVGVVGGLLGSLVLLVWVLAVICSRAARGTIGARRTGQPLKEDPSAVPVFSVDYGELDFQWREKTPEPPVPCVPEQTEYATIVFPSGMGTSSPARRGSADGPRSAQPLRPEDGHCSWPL

Row | SMILES | IC50
1 | CCCC[C@@H]1NC(=O)[C@H](CCCNC(=N)N)NC(=O)[C@@H](CC(C)C)NC(=O)[C@H](C)N(C)C(=O)[C@H]([C@@H](C)CC)NC(=O)[C@H](Cc2ccc(-c3ccccc3)cc2)NC(=O)[C@H](C(C)C)NC(=O)[C@H](Cc2c[nH]c3ccccc23)NC(=O)[C@H](CC(=O)O)NC(=O)[C@H](Cc2ccc(O)cc2)NC(=O)[C@H](Cc2ccccc2)NC(=O)CSC[C@@H](C(=O)N[C@@H](C)C(N)=O)NC(=O)[C@H]([C@@H](C)O)NC(=O)[C@H](C(C)C)NC1=O [Compound 1499] ({CH2CO}-FYDWV[Bip]I[NMeA][dL]R[Nle]VTCA-NH2; thioether N-14) | 0.14 µM
2 | CCCC[C@@H]1NC(=O)[C@H](CCCNC(=N)N)NC(=O)[C@@H](CC(C)C)NC(=O)[C@H](C)N(C)C(=O)[C@H](C(C)C)NC(=O)[C@H](Cc2ccc(-c3ccccc3)cc2)NC(=O)[C@H](C(C)C)NC(=O)[C@H](Cc2c[nH]c3ccccc23)NC(=O)[C@H](CC(=O)O)NC(=O)[C@H](Cc2ccc(O)cc2)NC(=O)[C@H](Cc2ccc(OCC(=O)O)cc2)NC(=O)CSC[C@@H](C(=O)N[C@@H](C)C(N)=O)NC(=O)[C@H]([C@@H](C)O)NC(=O)[C@H](C(C)C)NC1=O [Compound 1501] ({CH2CO}-Y(Carboxymethyl)YDWV[Bip]V[NMeA][dL]R[Nle]VTCA-NH2; thioether N-14) | 0.08 µM
3 | CC(C)C[C@H]1NC(=O)[C@H](C)N(C)C(=O)[C@H](CCCNC(N)=O)NC(=O)[C@H](Cc2ccc(-c3ccccc3)cc2)NC(=O)[C@H](C(C)C)NC(=O)[C@H](Cc2c[nH]c3ccccc23)NC(=O)[C@H](CC(=O)O)NC(=O)[C@H](Cc2ccc(O)cc2)NC(=O)[C@H](CN)NC(=O)CSC[C@@H](C(=O)N[C@@H](C)C(N)=O)NC(=O)[C@H]([C@@H](C)O)NC(=O)[C@H](C(C)C)NC(=O)[C@H](CC2CCCCC2)NC(=O)[C@H](CCCNC(=N)N)NC1=O [Compound 1503] ({CH2CO}-[Dap]YDWV[Bip][Cit][NMeA][dL]R[Cha]VTCA-NH2; thioether N-14) | 0.01 µM
4 | CC(C)C[C@H]1NC(=O)[C@H](C)N(C)C(=O)[C@H](CCCNC(N)=O)NC(=O)[C@H](Cc2ccc(-c3ccccc3)cc2)NC(=O)[C@H](C(C)C)NC(=O)[C@H](Cc2c[nH]c3ccccc23)NC(=O)[C@H](CC(=O)O)NC(=O)[C@H](Cc2ccc(O)cc2)NC(=O)[C@H](Cc2ccccc2)NC(=O)CSC[C@@H](C(=O)N[C@@H](C)C(N)=O)NC(=O)[C@H]([C@@H](C)O)NC(=O)[C@H](C(C)C)NC(=O)[C@H](CC2CCCCC2)NC(=O)[C@H](CCCNC(=N)N)NC1=O [Compound 1505] ({CH2CO}-FYDWV[Bip][Cit][NMeA][dL]R[Cha]VTCA-NH2; thioether N-14) | 0.02 µM
5 | CC(C)C[C@H]1NC(=O)[C@H](C)N(C)C(=O)[C@H](C(C)C)NC(=O)[C@H](Cc2ccc(-c3ccccc3)cc2)NC(=O)[C@H](C(C)C)NC(=O)[C@H](Cc2c[nH]c3ccccc23)NC(=O)[C@H](CC(=O)O)NC(=O)[C@H](Cc2ccc(O)cc2)NC(=O)[C@H](Cc2ccc(OCC(=O)O)cc2)NC(=O)CSC[C@@H](C(=O)N[C@@H](C)C(N)=O)NC(=O)[C@H]([C@@H](C)O)NC(=O)[C@H](C(C)C)NC(=O)[C@H](CC2CCCCC2)NC(=O)[C@H](CCN)NC1=O [Compound 1507] ({CH2CO}-Y(Carboxymethyl)YDWV[Bip]V[NMeA][dL][Dab][Cha]VTCA-NH2; thioether N-14) | 0.01 µM

Next, values leading:

Row | IC50 | SMILES
6 | 0.08 µM | CCCC[C@@H]1NC(=O)[C@H](CCCNC(=N)N)NC(=O)[C@@H](CC(C)C)NC(=O)[C@H](C)N(C)C(=O)[C@H](C(C)C)NC(=O)[C@H](Cc2ccc(-c3ccccc3)cc2)NC(=O)[C@H](C(C)C)NC(=O)[C@H](Cc2c[nH]c3ccccc23)NC(=O)[C@H](CC(=O)O)NC(=O)[C@H](Cc2ccc(O)cc2)NC(=O)[C@H](CN)NC(=O)CSC[C@@H](C(=O)N[C@@H](C)C(N)=O)NC(=O)[C@H]([C@@H](C)O)NC(=O)[C@H](C(C)C)NC1=O [Compound 1500] ({CH2CO}-[Dap]YDWV[Bip]V[NMeA][dL]R[Nle]VTCA-NH2; thioether N-14)
7 | 0.1 µM | CCCC[C@@H]1NC(=O)[C@H](CCCNC(=N)N)NC(=O)[C@@H](CC(C)C)NC(=O)[C@H](C)N(C)C(=O)[C@H](C(C)C)NC(=O)[C@H](Cc2ccc(-c3ccccc3)cc2)NC(=O)[C@H](C(C)C)NC(=O)[C@H](Cc2c[nH]c3ccccc23)NC(=O)[C@H](CC(=O)O)NC(=O)[C@H](Cc2ccc(O)cc2)NC(=O)[C@H](Cc2ccccc2)NC(=O)CSC[C@@H](C(=O)N[C@@H](C)C(N)=O)NC(=O)[C@H]([C@@H](C)O)NC(=O)[C@H](C(C)C)NC1=O [Compound 1502] ({CH2CO}-FYDWV[Bip]V[NMeA][dL]R[Nle]VTCA-NH2; thioether N-14)
8 | 0.02 µM | CC(C)C[C@H]1NC(=O)[C@H](C)N(C)C(=O)[C@H](CCCNC(N)=O)NC(=O)[C@H](Cc2ccc(-c3ccccc3)cc2)NC(=O)[C@H](C(C)C)NC(=O)[C@H](Cc2c[nH]c3ccccc23)NC(=O)[C@H](CC(=O)O)NC(=O)[C@H](Cc2ccc(O)cc2)NC(=O)[C@H](Cc2ccc(OCC(=O)O)cc2)NC(=O)CSC[C@@H](C(=O)N[C@@H](C)C(N)=O)NC(=O)[C@H]([C@@H](C)O)NC(=O)[C@H](C(C)C)NC(=O)[C@H](CC2CCCCC2)NC(=O)[C@H](CCCNC(=N)N)NC1=O [Compound 1504] ({CH2CO}-Y(Carboxymethyl)YDWV[Bip][Cit][NMeA][dL]R[Cha]VTCA-NH2; thioether N-14)
9 | 0.02 µM | CC(C)C[C@H]1NC(=O)[C@H](C)N(C)C(=O)[C@H](C(C)C)NC(=O)[C@H](Cc2ccc(-c3ccccc3)cc2)NC(=O)[C@H](C(C)C)NC(=O)[C@H](Cc2c[nH]c3ccccc23)NC(=O)[C@H](CC(=O)O)NC(=O)[C@H](Cc2ccc(O)cc2)NC(=O)[C@H](CN)NC(=O)CSC[C@@H](C(=O)N[C@@H](C)C(N)=O)NC(=O)[C@H]([C@@H](C)O)NC(=O)[C@H](C(C)C)NC(=O)[C@H](CC2CCCCC2)NC(=O)[C@H](CCN)NC1=O [Compound 1506] ({CH2CO}-[Dap]YDWV[Bip]V[NMeA][dL][Dab][Cha]VTCA-NH2; thioether N-14)
10 | 0.02 µM | CC(C)C[C@@H]1NC(=O)[C@H](Cc2c[nH]c3ccccc23)NC(=O)[C@H](CC(=O)O)NC(=O)[C@H](Cc2ccc(O)cc2)NC(=O)[C@H](Cc2ccccc2)NC(=O)CSC[C@@H](C(=O)NCC(N)=O)NC(=O)[C@H](CO)NC(=O)[C@H](C(C)C)NC(=O)[C@H](CC(C)C)NC(=O)[C@H](CC(N)=O)NC(=O)[C@@H](CC(C)C)NC(=O)[C@H](C)N(C)C(=O)[C@H](CCCNC(N)=O)NC(=O)[C@H](Cc2ccc(-c3ccccc3)cc2)NC1=O [Compound 1509] ({CH2CO}-FYDWL[Bip][Cit][NMeA][dL]NLVSCG-NH2; thioether N-14)
11 | 0.06 µM | CC(C)C[C@@H]1NC(=O)[C@H](Cc2c[nH]c3ccccc23)NC(=O)[C@H](CC(=O)O)NC(=O)[C@H](Cc2ccc(O)cc2)NC(=O)[C@H](Cc2ccccc2)NC(=O)CSC[C@@H](C(=O)NCC(N)=O)NC(=O)[C@H](CO)NC(=O)[C@H](C(C)C)NC(=O)[C@H](CC(C)C)NC(=O)[C@H](CC(N)=O)NC(=O)[C@@H](CC(C)C)NC(=O)[C@H](C)N(C)C(=O)[C@H](CCC(=O)O)NC(=O)[C@H](Cc2ccc(-c3ccccc3)cc2)NC1=O [Compound 1510] ({CH2CO}-FYDWL[Bip]E[NMeA][dL]NLVSCG-NH2; thioether N-14)
